We go through two compounds from ChEMBL document CHEMBL4382280, “Inhibitors of G12C Mutant Ras Proteins for the Treatment of Cancers” (ACS Med Chem Lett, 2019).

The pIC50 is −log10 of the IC50, conventionally taken in molar units.

The assay deals with GTPase KRas (Homo sapiens, UniProt P01116, G12C). Description: Inhibition of GDP loaded biotin-labeled KRAS G12C mutant (unknown origin) assessed as reduction in guanine nucleotide exchange preincubated for 4 hrs followed by GST-RAF-RBD addition in presence of GTPgammaS by FRET assay.
Chain of GTPase KRas (P01116 whole entry G12C): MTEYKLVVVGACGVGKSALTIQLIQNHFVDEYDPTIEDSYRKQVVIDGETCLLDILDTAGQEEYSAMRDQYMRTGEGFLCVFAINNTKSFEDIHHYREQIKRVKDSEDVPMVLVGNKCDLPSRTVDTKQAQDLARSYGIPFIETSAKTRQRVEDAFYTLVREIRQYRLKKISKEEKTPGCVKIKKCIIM

Each structure is given as a SMILES string. pIC50: −log10 of the molar value.

As to `C=CC(=O)N1CCN2c3ncnc4cc(-c5c(C)ccc6[nH]ncc56)c(Cl)c(c34)OC[C@@H]2C1` (stereo in doubt; form 1), the pIC50 is 6.91.

For the compound `C=CC(=O)N1CCN2c3ncnc4cc(-c5c(C)ccc6[nH]ncc56)c(Cl)c(c34)OC[C@@H]2C1` (stereo in doubt; form 3), the pIC50 was 7.92.
